We go through 18 compounds from patent US10227323B2, “Glucosylceramide synthase inhibitors for the treatment of diseases” (BIOMARIN PHARMACEUTICAL INC., priority 2013, dated 2019).

SMILES strings stand for the structures.

One assay concerns the target T1, GCS (Canis lupus familiaris, UniProt A0A8I3MXG6).
T1 sequence (A0A8I3MXG6 1-394): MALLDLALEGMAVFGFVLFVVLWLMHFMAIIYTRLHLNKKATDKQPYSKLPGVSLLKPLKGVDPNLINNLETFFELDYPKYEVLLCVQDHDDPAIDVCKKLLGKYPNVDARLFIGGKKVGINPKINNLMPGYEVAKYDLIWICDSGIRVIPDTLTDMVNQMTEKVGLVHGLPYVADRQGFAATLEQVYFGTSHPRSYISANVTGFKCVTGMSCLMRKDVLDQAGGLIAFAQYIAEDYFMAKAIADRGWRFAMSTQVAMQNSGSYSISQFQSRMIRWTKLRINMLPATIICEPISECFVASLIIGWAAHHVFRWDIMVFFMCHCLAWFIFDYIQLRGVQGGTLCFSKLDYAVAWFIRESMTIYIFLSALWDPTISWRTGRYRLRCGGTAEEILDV
Briefly: Assay 1: GCS Enzymatic Assay (MDCK cell lysate, C6-NBD-Ceramide, LC/MS). It counts as biochemical, canine. As to conditions: Table 1; MDCK cell lysate; read-out: IC50 (nM) generated from Assay 1. As to the method:
This assay was modified based on the study by Larsen et al. (J. Lipid Res. 2011, 53, 282). Madin-Darby canine kidney (MDCK) cell lysate was prepared using M-PER Mammalian Protein Extraction Reagent (Thermal Scientific) in the presence of a protease inhibitor cocktail (Roche). Protein concentration was determined using BCA assay kit (Pierce). Sixty micrograms of MDCK cell lysate was incubated with various concentrations of a compound described herein from 0.001 μM-10 μM, respectively, in 100 mM Tris buffer (pH 7.5) containing 10 mM MgCl2, 1 mM dithiothreitol, 1 mM EGTA, 2 mM NAD, 100 μM UDP-glucose, 10 μM C6-NBD-Ceramide (Matreya LLC, Pleasant Gap, Pa.), 35 μM dioleoylphosphatidylcholine and 5 μM sulfatide (Sigma) in a final reaction volume of 100 μL at 37° C. for 1 hour. 0.1% DMSO was used as mock treatment or control. The reaction was terminated by adding 100 μL acetonitrile solution and subjected to LC/MS analysis.
The quantitative analysis of NBD-Ceramide and glucosylceramide was performed on a Shimadzu ultra-fast liquid chromatography (Shimadzu, Japan) coupled with API 4000 triple quadrupole mass spectrometer (Applied Biosystems, Concord, Ontario, Canada). Sample separation was conducted on a Waters Xbridge™ BEH130 C18, 100 mm×4.6 mm i.d, 3.5 μm (Milford, Mass., USA). The mobile phase consisted of water and acetonitrile supplemented with 0.1% formic acid (v/v). The flow rate was 1.0 mL/min. The initial mobile phase was 20% acetonitrile and was ramped in a linear fashion to 50% acetonitrile in 0.4 min. From 0.4 to 1.5 min, the gradient was ramped to 98% acetonitrile, and then was held at […] until 8.0 min. Acetonitrile was reset to 20% in 1.5 min, and maintained until 10.0 min. The total run time was 10.0 min. The MS/MS detection was performed in ESI positive mode. The mass transition of NBD-Ceramide was m/z 576.36→558.40 under the collision energy of 15 V, and the mass transition of glucosylceramide was m/z 738.35→558.40 under 21V collision energy. The cell lysate was diluted with equal volume of acetonitrile. Aliquots of 50 μL diluted samples were added to 1.5 mL tubes, and 100 μL of acetonitrile containing internal standard (100 ng/mL tolbutamide) were added for protein precipitation. The mixture were vortexed and then centrifuged at 13000 rpm for 10 min. 70 μL of supernatant were mixed with 140 μL of H2O and the final solution were injected for LC/MS/MS analysis and IC50's and/or percent inhibitions calculated.
Turning to `O=C(N[C@H](CN1CCCC1)[C@H](O)c1ccc2c(c1)OCCO2)C(F)(F)c1cc2cc(Cl)ccc2o1` [Compound 11, 2-(5-chlorobenzofuran-2-yl)-N-((1R,2R)-1-(2,3-dihydrobenzo[b][1,4]dioxin-6-yl)-1-hydroxy-3-(pyrrolidin-1-yl)propan-2-yl)-2,2-difluoroacetamide], the half-maximal inhibitory concentration (IC50) – broadly, the midpoint of a concentration-inhibition curve – was under 50 nM.

Consider `O=C(N[C@H](CN1CCCC1)[C@@H](O)c1cc2c(cc1F)OCCO2)C(F)(F)C1Cc2ccccc2C1` [Compound 12B, 2-(2,3-dihydro-1H-inden-2-yl)-2,2-difluoro-N-((1S,2R)-1-(7-fluoro-2,3-dihydrobenzo[b][1,4]dioxin-6-yl)-1-hydroxy-3-(pyrrolidin-1-yl)propan-2-yl)acetamide], for which the IC50 was in the range of 50 to 5000 nM. On to `O=C(N[C@H](CN1CCCC1)[C@H](O)c1ccc2c(c1)OCCO2)C(F)(F)C1Cc2cc3nccnc3cc2C1` [Compound 13, 2-(7,8-dihydro-6H-cyclopenta[g]quinoxalin-7-yl)-N-((1R,2R)-1-(2,3-dihydrobenzo[b][1,4]dioxin-6-yl)-1-hydroxy-3-(pyrrolidin-1-yl)propan-2-yl)-2,2-difluoroacetamide], for which the concentration for half-maximal inhibition (IC50) lay in the range of 50 to 5000 nM. On the same count and under the same terms, next, `Cn1c(C(F)(F)C(=O)N[C@H](CN2CCCC2)[C@H](O)c2ccc3c(c2)OCCO3)cc2cc(Cl)ccc21` [Compound 14, 2-(5-chloro-1-methyl-1H-indol-2-yl)-N-((1R,2R)-1-(2,3-dihydrobenzo[b][1,4]dioxin-6-yl)-1-hydroxy-3-(pyrrolidin-1-yl)propan-2-yl)-2,2-difluoroacetamide]: under 50 nM. `O=C(N[C@H](CN1CCCC1)[C@H](O)c1ccc2c(c1)OCCO2)C(F)(F)c1cc2cc(Cl)cc(Cl)c2o1` [Compound 15, 2-(5,7-dichlorobenzofuran-2-yl)-N-((1R,2R)-1-(2,3-dihydrobenzo[b][1,4]dioxin-6-yl)-1-hydroxy-3-(pyrrolidin-1-yl)propan-2-yl)-2,2-difluoroacetamide]: the IC50 was under 50 nM. The same measure, in the same setting: next, `O=C(N[C@H](CN1CCCC1)[C@H](O)c1ccc2c(c1)OCCO2)C(F)(F)CCc1cccc(-c2ccccn2)c1` [Compound 16, N-((1R,2R)-1-(2,3-dihydrobenzo[b][1,4]dioxin-6-yl)-1-hydroxy-3-(pyrrolidin-1-yl)propan-2-yl)-2,2-difluoro-4-(3-(pyridin-2-yl)phenyl)butanamide]: under 50 nM; `O=C(N[C@H](CN1CCCC1)[C@H](O)c1ccc2c(c1)OCCO2)C(F)(F)Cc1ccc2ccccc2c1` [Compound 17, N-((1R,2R)-1-(2,3-dihydrobenzo[b][1,4]dioxin-6-yl)-1-hydroxy-3-(pyrrolidin-1-yl)propan-2-yl)-2,2-difluoro-3-(naphthalen-2-yl)propanamide]: 50 to 5000 nM; `O=C(N[C@H](CN1CCCC1)[C@H](O)c1ccc2c(c1)OCCO2)C(F)(F)c1cc2c(Cl)c(Cl)ccc2o1` [Compound 19, 2-(4,5-dichlorobenzofuran-2-yl)-N-((1R,2R)-1-(2,3-dihydrobenzo[b][1,4]dioxin-6-yl)-1-hydroxy-3-(pyrrolidin-1-yl)propan-2-yl)-2,2-difluoroacetamide]: under 50 nM.

In the case of `O=C(N[C@H](CN1CCCC1)[C@H](O)c1ccc2c(c1)OCCO2)C(F)(F)C1Cc2ccc(F)cc2C1` (stereo partly drawn) [Compound 21, N-((1R,2R)-1-(2,3-dihydrobenzo[b][1,4]dioxin-6-yl)-1-hydroxy-3-(pyrrolidin-1-yl)propan-2-yl)-2,2-difluoro-2-(5-fluoro-2,3-dihydro-1H-inden-2-yl)acetamide], the IC50 was under 50 nM. The same measure, in the same setting: next, `O=C(N[C@H](CN1CCCC1)[C@H](O)c1ccc2c(c1)OCCO2)C(F)(F)CCc1ccc2ccccc2c1` [Compound 22, N-((1R,2R)-1-(2,3-dihydrobenzo[b][1,4]dioxin-6-yl)-1-hydroxy-3-(pyrrolidin-1-yl)propan-2-yl)-2,2-difluoro-4-(naphthalen-2-yl)butanamide]: under 50 nM. For `O=C(N[C@H](CN1CCCC1)[C@H](O)c1ccc2c(c1)OCCO2)C(F)(F)c1cc2ccccc2o1` [Compound 23, 2-(benzofuran-2-yl)-N-((1R,2R)-1-(2,3-dihydrobenzo[b][1,4]dioxin-6-yl)-1-hydroxy-3-(pyrrolidin-1-yl)propan-2-yl)-2,2-difluoroacetamide], the half-maximal inhibitory concentration (IC50) was under 50 nM. Same read-out and setting: next, `O=C(N[C@H](CN1CCCC1)[C@H](O)c1ccc2c(c1)OCCO2)C(F)(F)c1cc2cc(F)ccc2o1` [Compound 24, N-((1R,2R)-1-(2,3-dihydrobenzo[b][1,4]dioxin-6-yl)-1-hydroxy-3-(pyrrolidin-1-yl)propan-2-yl)-2,2-difluoro-2-(5-fluorobenzofuran-2-yl)acetamide]: under 50 nM.

The assay is the same for the next values; noted with them: Table 1; values marked *; MDCK cell lysate.
Turning to `Cn1c(C(F)(F)C(=O)N[C@H](CN2CCCC2)[C@H](O)c2ccc3c(c2)OCCO3)nc2cc(Cl)ccc21` [Compound 10, 2-(5-chloro-1-methyl-1H-benzo[d]imidazol-2-yl)-N-((1R,2R)-1-(2,3-dihydrobenzo[b][1,4]dioxin-6-yl)-1-hydroxy-3-(pyrrolidin-1-yl)propan-2-yl)-2,2-difluoroacetamide], the “% inhibition generated from Assay 1” value was “B* (the compound had a % inhibition of greater than or equal to about 3% but less than about 50%)”. On to `O=C(N[C@H](CN1CCCC1)[C@H](O)c1ccc2c(c1)OCCO2)C(F)(F)c1cc2cc(Cl)c(Cl)cc2o1` [Compound 18, 2-(5,6-dichlorobenzofuran-2-yl)-N-((1R,2R)-1-(2,3-dihydrobenzo[b][1,4]dioxin-6-yl)-1-hydroxy-3-(pyrrolidin-1-yl)propan-2-yl)-2,2-difluoroacetamide], for which the “% inhibition generated from Assay 1” value was “B* (the compound had a % inhibition of greater than or equal to about 3% but less than about 50%)”. For `O=C(N[C@H](CN1CCCC1)[C@H](O)c1ccc2c(c1)OCCO2)C(F)(F)Cc1cccc(-c2ccccn2)c1` [Compound 20, N-((1R,2R)-1-(2,3-dihydrobenzo[b][1,4]dioxin-6-yl)-1-hydroxy-3-(pyrrolidin-1-yl)propan-2-yl)-2,2-difluoro-3-(3-(pyridin-2-yl)phenyl)propanamide], the “% inhibition generated from Assay 1” value was “B* (the compound had a % inhibition of greater than or equal to about 3% but less than about 50%)”. Turning to `O=C(N[C@H](CN1CCCC1)[C@@H](O)c1ccc2c(c1)OCCO2)C(F)(F)CCc1ccc2ccccc2c1` [Compound 22K, N-((1S,2R)-1-(2,3-dihydrobenzo[b][1,4]dioxin-6-yl)-1-hydroxy-3-(pyrrolidin-1-yl)propan-2-yl)-2,2-difluoro-4-(naphthalen-2-yl)butanamide], the “% inhibition generated from Assay 1” value is “B* (the compound had a % inhibition of greater than or equal to about 3% but less than about 50%)”.

`O=C(N[C@H](CN1CCCC1)[C@H](O)c1ccc2c(c1)OCCO2)C(F)(F)/C=C/c1ccc(Cl)cc1` [Compound 25, (E)-4-(4-chlorophenyl)-N-((1R,2R)-1-(2,3-dihydrobenzo[b][1,4]dioxin-6-yl)-1-hydroxy-3-(pyrrolidin-1-yl)propan-2-yl)-2,2-difluorobut-3-enamide]: the “% inhibition generated from Assay 1” value is “B* (the compound had a % inhibition of greater than or equal to about 3% but less than about 50%)”.

Regarding `NC1CC2CCC(C1)N2C[C@@H](NC(=O)C(F)(F)c1cc2cc(Cl)ccc2o1)[C@H](O)c1ccc2c(c1)OCCO2` (stereo partly drawn) [Compound 26, N-((1R,2R)-3-(3-amino-8-azabicyclo[3.2.1]octan-8-yl)-1-(2,3-dihydrobenzo[b][1,4]dioxin-6-yl)-1-hydroxypropan-2-yl)-2-(5-chlorobenzofuran-2-yl)-2,2-difluoroacetamide], the “% inhibition generated from Assay 1” value is recorded as “B* (the compound had a % inhibition of greater than or equal to about 3% but less than about 50%)”.
